Data as given in patent publication US6677330B1, “Fluorides of 4-substituted piperidine derivatives” (priority 1999, dated 2004).
Where a name gives a salt, the structure may show the parent alone.

Tested on: not given
Assay: not given
Conditions: not given

melting point [°C] | SMILES
177 to 180 | COc1cc2c(cc1OC)C(=O)C(F)(CC1CCN(Cc3ccccn3)CC1)C2 (stereo not drawn) (as salt: hydrochloride)
143 to 145 | COc1cc2c(cc1OC)C(=O)C(F)(CC1CCN(CC3OCCO3)CC1)C2 (stereo not drawn) (as salt: hydrochloride)
139 to 141 | COc1cc2c(cc1OC)C(=O)C(F)(CC1CCN(Cc3cccc(C#N)c3)CC1)C2 (stereo not drawn) (as salt: hydrochloride)

Biological target: T1, acetylcholinesterase (Rattus norvegicus, UniProt P37136)
T1 construct: Using a rat brain homogenate as a source of acetylcholinesterase; from tissue; host or cells: rat brain homogenate
T1 sequence (P37136 32-614): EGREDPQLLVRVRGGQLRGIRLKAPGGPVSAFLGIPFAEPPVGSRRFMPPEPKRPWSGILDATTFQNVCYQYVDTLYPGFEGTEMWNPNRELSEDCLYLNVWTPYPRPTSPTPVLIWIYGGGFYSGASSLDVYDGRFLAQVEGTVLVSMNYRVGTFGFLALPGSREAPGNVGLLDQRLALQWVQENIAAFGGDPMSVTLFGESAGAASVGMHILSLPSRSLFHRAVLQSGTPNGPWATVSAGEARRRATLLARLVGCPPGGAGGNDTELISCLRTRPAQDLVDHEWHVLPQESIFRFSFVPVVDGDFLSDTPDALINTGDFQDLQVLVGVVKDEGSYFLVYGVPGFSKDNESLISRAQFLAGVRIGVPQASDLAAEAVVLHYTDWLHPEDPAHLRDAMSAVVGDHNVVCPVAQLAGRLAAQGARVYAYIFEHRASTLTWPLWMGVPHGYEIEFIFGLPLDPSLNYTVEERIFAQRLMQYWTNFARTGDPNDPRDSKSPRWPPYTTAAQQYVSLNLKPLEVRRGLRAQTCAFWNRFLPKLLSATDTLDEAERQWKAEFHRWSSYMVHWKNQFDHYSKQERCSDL
Assay: biochemical
Conditions: rat brain homogenate as enzyme source; acetylthiocholine substrate, DTNB, absorbance at 412 nm; read-out: IC50 (50% inhibitory concentration on acetylcholinesterase)
Protocol: Inhibitory effect on acetylcholinesterase in vitro
Using a rat brain homogenate as a source of acetylcholinesterase, the esterase activity was determined in accordance with the method of Ellman et al^1). Acethylthiocholine (as a substrate), a test compound and DTNB (5,5′-dithiobis(2-nitrobenzoic acid)) were added to the […] brain homogenate, and then incubated. Then, the resulting yellow product produced by the reaction of the resulting thiocholine with DTNB was determined for the change in absorbanceat 412 nm, to determine the acethylcholinesterase activity.
^1); Ellman. G. L., Courtney, K. D., Andres, V. and Featherstone, R. M., (1961), Biochem. Pharmacol., 7, 88-95.
The inhibitory effect of each test compound on acethylcholinesterase was determined in terms of 50% inhibitory concentration (IC50).
Each of the compounds was dissolved in physiological saline for use as a test sample.

SMILES | IC50 [nM]
CCOc1cc2c(cc1OCC)C(=O)C(F)(CC1CCN(Cc3ccccc3)CC1)C2 (stereo not drawn) [Example 1, 1-Benezyl-4-[(5,6-diethoxy-2-flouro-1-indanon)-2-yl]methylpiperidine Hydrochloride] | 0.38
COc1cc2c(cc1OC)C(=O)C(F)(CC1CCN(Cc3cccc(F)c3)CC1)C2 (stereo not drawn) [Example 4, 4-[(5,6-Dimethoxy-2-flouro-indanon)-2-yl]methyl-1-(3-flourobenzyl)piperidine Hydrochloride] | 0.47
COc1cc2c(cc1OC)C(=O)C(F)(CC1CCN(Cc3cccc(C)c3)CC1)C2 (stereo not drawn) [Example 5, 4-[(5,6-Dimethoxy-2-flouro-1-indanon)-2-yl]methyl-1-(3-methylbenzyl)piperidine Hydrochoride] | 0.82
COc1cc2c(cc1OC)C(=O)C(F)(CC1CCN(CC3CCCCC3)CC1)C2 (stereo not drawn) [Example 6, 1-(-Cyclohexylmethyl-4-[(5,6-dimethoxy-2-flouro-1-indanon)-2-yl]methylpiperidine Hydrochloride] | 1.7
COc1cc2c(cc1OC)C(=O)C(F)(CC1CCN(Cc3cccc([N+](=O)[O-])c3)CC1)C2 (stereo not drawn) [Example 11, 4-[(5,6-Dimethoxy-2-flouro-1-indanon)-2-yl]methyl-1-(3-nitrobenzyl)piperidine Hydrochloride] | 0.7
COc1ccc2c(c1)CC(F)(CC1CCN(Cc3ccccc3)CC1)C2=O (stereo not drawn) [Example 12, 1-Benzyl-4-[(5-methoxy-2-flouro-1-indanon)-2-yl]methylpiperidine Hydrochloride] | 1.2
COc1cc2c(cc1OC)C(=O)C(F)(CCCC1CCN(Cc3ccccc3)CC1)C2 (stereo not drawn) [Example 14, 1-Benzyl-4-[3-[5,6-dimethoxy-2-flouro-1-indanon)-2-yl]propyl]piperidine Hydrochloride] | 1.4
COc1cc2c(cc1OC)C(=O)C(F)(CC1CCN(Cc3ccc(O)cc3)CC1)C2 (stereo not drawn) [Example 15, 4-[(5,6-Dimethoxy-2-flouro-1-indanon)-2-yl]methyl-1-(4-hydroxybenzyl)piperidine Hydrochloride] | 0.32
CCCOc1cc2c(cc1OCCC)C(=O)C(F)(CC1CCN(Cc3ccccc3)CC1)C2 (stereo not drawn) [Example 17, 1-Benzyl-4-[[[5,6-di-(1-propyloxy)]-2-flouro-1-indanon-2-yl]methylpiperidine Hydrochloride] | 0.89
